Test results taken from US20260049071A1, “PROTEIN TYROSINE KINASE INHIBITOR AND MEDICAL USE THEREOF” (BEYANG THERAPEUTICS CO., LTD., priority 2022, published 2026).

What was measured:
KDR (VEGFR2) = KDR (VEGFR2) (Homo sapiens (Human), UniProt P35968); test: Kinase inhibition, Mobility Shift Assay (VEGFR2); type: biochemical
Procedure: (§1) This assay directly monitored the ability of compounds to inhibit kinase phosphorylation by measuring non-phosphorylated and phosphorylated substrates in kinase reactions by using Mobility Shift Assays/IMAP™ analysis.
(§2) Add the kinase and DTT to 1× kinase buffer to form a 2.5× kinase solution; transfer 10 μL of 2.5× kinase solution to a 384-well reaction plate and add 1× kinase buffer to negative control wells. Incubate the plate for 10 min at room temperature; add FAM-labeled peptides, MgCl2, ATP and other reagents to 1× kinase buffer to form a 2.5× substrate solution; transfer 10 μL of the above 2.5× substrate solution to the 384-well reaction plate; incubate the plate at 28° C. for different times, and add 25 μL of stop solution to the 384-well reaction plate to stop the reaction. Read the conversion ratio data on CaliperEZ Reader II. Convert conversion rates into inhibition ratio data.
(§3) “Min” indicates the readout of the control well without the addition of kinase; and “Max” indicates the readout of the control well with the addition of DMSO. Fit IC50 values with XLFit excel add-in version 5.4.0.8.
(§4) X indicates the log value of compound concentration, and Y indicates the inhibition ratio (% inhibition).

melanin = test: Binding capacity of compounds to melanin; type: in vitro ADME; settings: Sepia officinalis (cuttlefish), melanin suspension (1 mg/mL); 1 mg/mL melanin suspension in PBS pH 7.4, 2 μM compound, 2 h at 37° C.; read-out: Fu % (percentage of free drug, not bound to melanin)
From the text: Pigmented eye tissues contain melanin in intracellular melanosomes. Drugs bind to melanin to varying degrees, ranging from non-binding to extensive binding. Therefore, melanin binding is an important feature that affects drug delivery and biodistribution in the eye. The binding capacity of a compound to the melanin must be considered in the development of ophthalmic drugs.
Melanin was derived from the melanin of cuttlefish (Sepia officinalis) and was commercially available from Sigma Aldrich (St Louis, MO).
First, prepare 1 mg/mL melanin suspension with PBS (pH 7.4). As a washing step for the matrix, centrifuge the suspended particles for 5 min at 3000 rpm. Resuspend the resulting particles in a fresh PBS buffer, heat to 37° C. over continuous shaking and incubate it for 1 h. Accurately pipette 2 μL of the test stock solution (0.1 mM) into 98 μL of melanin suspension (1 mg/mL) to achieve a final incubation concentration of 2 μM. Similarly, accurately pipette 2 μL of the stock solution (0.1 mM) to 98 μL of PBS buffer (containing 0.1% BSA) as a blank control sample. Incubate the samples in a shaker (80-90 rpm) for 2 h at 37° C. Then, centrifuge the samples at room temperature. Pipette 50 μL of the supernatant and add 50 μL of precipitant (containing an internal standard). After protein precipitation of all the above samples, centrifuge the samples to collect the supernatants, dilute the supernatants with water (if necessary) and inject them for analysis. At the same time, measure the positive controls, including the high-binding compounds Sunitinib and chloroquine and the low-binding compound celecoxib. Establish an LC-MS/MS method for determining compound concentrations, and calibrate the peak area ratio of analyte/internal standard (Analyte/AIS) in the measured sample by the dilution factor to take it as an alternative concentration for the sample for data processing. The binding rate (Fh) of a compound in melanin was calculated as: […]
Ctest was the concentration of the compound in the melanin-incubated sample or the peak area ratio of the test compound to the internal standard. Ccontrol was the concentration of the compound in the blank control sample or the peak area ratio of the test compound to the internal standard. Percentage of free drug (Fu %)=100−Fb The binding rates of the compounds of the present invention to melanin are shown in the table below: […]

EGFR = EGFR (Homo sapiens (Human), UniProt P00533); test: Kinase inhibition, Mobility Shift Assay (EGFR); type: biochemical
Procedure: as §1, §2, §3, §4

FLT1 (VEGFR1) = FLT1 (VEGFR1) (Homo sapiens (Human), UniProt P17948); test: Kinase inhibition, Mobility Shift Assay (VEGFR1); type: biochemical
Procedure: as §1, §2, §3, §4

FLT4 (VEGFR3) = FLT4 (VEGFR3) (Homo sapiens (Human), UniProt P35916); test: Kinase inhibition, Mobility Shift Assay (VEGFR3); type: biochemical
Procedure: as §1, §2, §3, §4

Sequence of FLT4 (VEGFR3) (P35916 25-1363): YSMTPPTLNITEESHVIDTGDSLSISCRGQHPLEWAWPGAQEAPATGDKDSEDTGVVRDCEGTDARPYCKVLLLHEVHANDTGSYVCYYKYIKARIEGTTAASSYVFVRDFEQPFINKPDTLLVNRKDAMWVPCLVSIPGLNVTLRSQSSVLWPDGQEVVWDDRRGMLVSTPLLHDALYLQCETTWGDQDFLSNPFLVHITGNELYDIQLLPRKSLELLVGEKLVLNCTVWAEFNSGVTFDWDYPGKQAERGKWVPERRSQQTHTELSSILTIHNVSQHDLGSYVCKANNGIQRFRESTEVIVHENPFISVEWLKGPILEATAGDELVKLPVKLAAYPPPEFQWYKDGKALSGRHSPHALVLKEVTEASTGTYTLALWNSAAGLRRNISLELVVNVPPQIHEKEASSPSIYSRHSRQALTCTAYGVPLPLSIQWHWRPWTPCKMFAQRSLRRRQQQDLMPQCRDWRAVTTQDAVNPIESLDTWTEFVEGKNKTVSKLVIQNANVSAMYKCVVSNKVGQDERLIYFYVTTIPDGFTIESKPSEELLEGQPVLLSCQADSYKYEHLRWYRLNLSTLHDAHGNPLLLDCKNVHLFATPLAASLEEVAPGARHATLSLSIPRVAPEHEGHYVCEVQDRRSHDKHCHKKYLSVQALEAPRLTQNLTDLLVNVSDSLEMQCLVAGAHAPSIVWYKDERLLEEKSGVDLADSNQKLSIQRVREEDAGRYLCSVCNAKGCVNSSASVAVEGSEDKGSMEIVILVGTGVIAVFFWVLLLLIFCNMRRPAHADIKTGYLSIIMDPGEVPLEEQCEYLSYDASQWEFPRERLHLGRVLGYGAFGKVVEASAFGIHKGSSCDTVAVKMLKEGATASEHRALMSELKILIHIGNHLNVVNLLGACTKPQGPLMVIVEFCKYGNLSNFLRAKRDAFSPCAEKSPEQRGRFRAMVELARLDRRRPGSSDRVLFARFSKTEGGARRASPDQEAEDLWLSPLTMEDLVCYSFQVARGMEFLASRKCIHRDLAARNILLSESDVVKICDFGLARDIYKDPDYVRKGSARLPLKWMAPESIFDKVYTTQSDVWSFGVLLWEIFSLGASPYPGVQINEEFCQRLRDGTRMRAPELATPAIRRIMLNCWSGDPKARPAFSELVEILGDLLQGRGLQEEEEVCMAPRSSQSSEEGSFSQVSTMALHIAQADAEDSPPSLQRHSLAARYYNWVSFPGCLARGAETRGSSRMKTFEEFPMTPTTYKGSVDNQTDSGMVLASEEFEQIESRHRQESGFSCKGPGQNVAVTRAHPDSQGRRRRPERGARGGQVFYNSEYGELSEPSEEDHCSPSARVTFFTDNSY
Sequence of KDR (VEGFR2) (P35968 790-1356): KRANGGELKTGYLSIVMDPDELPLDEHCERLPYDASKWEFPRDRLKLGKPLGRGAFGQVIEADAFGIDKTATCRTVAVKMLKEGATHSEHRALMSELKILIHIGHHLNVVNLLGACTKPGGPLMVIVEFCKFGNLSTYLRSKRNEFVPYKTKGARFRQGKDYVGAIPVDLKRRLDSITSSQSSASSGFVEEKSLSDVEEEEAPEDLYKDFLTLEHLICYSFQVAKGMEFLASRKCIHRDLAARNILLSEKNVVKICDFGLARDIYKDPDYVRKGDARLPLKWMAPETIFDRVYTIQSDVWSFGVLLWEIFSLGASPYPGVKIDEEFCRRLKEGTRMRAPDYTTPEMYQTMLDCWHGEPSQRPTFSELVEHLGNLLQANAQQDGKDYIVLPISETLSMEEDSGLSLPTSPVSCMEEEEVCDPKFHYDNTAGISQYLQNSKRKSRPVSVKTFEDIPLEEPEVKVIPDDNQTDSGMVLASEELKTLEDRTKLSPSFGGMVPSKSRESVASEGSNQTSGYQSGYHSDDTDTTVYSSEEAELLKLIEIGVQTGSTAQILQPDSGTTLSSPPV
Sequence of EGFR (P00533 25-1210): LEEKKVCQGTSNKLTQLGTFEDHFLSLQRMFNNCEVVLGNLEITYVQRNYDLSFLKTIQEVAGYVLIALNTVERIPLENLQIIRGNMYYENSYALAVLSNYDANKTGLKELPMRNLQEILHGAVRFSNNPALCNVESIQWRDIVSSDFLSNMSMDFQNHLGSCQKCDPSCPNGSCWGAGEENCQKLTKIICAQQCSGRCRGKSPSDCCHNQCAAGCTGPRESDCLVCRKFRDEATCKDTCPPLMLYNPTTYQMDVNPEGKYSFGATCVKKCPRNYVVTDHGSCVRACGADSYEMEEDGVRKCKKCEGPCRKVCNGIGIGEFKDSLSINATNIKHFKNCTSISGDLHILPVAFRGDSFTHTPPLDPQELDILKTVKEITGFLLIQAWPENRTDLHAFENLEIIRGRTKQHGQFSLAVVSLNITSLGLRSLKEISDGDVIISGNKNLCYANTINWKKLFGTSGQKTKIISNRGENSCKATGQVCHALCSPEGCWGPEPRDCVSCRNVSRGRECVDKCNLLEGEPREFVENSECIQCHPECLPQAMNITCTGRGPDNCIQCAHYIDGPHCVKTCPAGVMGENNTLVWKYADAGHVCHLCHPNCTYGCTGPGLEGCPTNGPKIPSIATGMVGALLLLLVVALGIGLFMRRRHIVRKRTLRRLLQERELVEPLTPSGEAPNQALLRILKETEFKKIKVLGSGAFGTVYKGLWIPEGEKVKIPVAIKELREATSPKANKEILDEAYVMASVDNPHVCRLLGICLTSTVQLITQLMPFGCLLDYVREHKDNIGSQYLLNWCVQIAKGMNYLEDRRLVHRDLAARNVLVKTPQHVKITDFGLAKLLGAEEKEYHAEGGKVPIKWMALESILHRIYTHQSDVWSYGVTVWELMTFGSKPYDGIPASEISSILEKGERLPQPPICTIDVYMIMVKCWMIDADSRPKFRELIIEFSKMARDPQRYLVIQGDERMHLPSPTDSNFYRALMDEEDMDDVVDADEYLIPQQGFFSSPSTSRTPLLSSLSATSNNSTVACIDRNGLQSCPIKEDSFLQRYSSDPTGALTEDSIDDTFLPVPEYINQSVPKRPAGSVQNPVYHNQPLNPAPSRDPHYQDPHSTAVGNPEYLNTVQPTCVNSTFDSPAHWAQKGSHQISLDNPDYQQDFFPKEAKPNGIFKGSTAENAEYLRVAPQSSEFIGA
Sequence of FLT1 (VEGFR1) (P17948 27-1338): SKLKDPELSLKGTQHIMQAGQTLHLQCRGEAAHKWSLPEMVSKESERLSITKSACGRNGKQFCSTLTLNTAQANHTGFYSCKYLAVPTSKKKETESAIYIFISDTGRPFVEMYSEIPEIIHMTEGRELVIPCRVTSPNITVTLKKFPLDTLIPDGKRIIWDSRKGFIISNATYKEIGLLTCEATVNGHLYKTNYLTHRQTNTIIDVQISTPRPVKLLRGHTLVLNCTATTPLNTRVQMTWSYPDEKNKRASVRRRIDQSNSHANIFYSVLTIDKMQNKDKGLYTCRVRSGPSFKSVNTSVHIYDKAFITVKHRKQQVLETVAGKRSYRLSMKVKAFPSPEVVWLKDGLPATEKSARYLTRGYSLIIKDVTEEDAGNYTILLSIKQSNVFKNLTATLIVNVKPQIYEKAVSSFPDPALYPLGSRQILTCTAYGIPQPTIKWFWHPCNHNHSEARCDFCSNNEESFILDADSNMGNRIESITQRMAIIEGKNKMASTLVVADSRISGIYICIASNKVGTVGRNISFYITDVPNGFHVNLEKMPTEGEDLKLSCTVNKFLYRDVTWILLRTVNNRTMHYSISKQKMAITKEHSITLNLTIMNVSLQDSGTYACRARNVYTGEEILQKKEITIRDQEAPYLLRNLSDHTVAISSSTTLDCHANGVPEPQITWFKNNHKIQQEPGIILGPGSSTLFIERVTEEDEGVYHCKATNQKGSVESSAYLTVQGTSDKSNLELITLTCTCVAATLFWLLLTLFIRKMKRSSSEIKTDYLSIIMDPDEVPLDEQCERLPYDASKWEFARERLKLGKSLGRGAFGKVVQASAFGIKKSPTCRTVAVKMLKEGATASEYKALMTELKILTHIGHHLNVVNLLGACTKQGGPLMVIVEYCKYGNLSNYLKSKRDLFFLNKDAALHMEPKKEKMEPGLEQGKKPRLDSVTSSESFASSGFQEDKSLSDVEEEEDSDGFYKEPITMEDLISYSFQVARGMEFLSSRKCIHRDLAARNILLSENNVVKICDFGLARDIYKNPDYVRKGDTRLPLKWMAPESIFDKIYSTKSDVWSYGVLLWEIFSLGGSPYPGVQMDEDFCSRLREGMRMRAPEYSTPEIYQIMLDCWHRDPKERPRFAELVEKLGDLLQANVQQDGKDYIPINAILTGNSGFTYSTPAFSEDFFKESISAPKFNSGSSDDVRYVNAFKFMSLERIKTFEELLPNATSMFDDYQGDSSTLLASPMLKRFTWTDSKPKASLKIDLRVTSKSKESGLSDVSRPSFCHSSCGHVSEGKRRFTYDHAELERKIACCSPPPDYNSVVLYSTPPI

`CCN(CC)Cc1ccc(/C=C/c2n[nH]c3cc(Sc4ccc(F)cc4C(=O)NC)ccc23)nc1` [Compound I-93, 2-({3-[(E)-2-{5-[(diethylamino)methyl]pyridin-2-yl}vinyl]-1H-indazol-6-yl}thio)-5-fluoro-N-methylbenzamide] showed an IC50 (KDR (VEGFR2)) of 1 to 10 nM, a fraction unbound at 2 h, 2 μM (melanin) of 0.01 to 0.05 and an IC50 (EGFR) of 6000 to 60000 nM.

With `O=C(NC1CC1)c1ccccc1Sc1ccc2c(/C=C/c3cc(CCCN4CCCC4)ccn3)n[nH]c2c1` [Compound I-120, N-cyclopropyl-2-({3-[(E)-2-{4-[3-(pyrrolidin-1-yl)propyl]pyridin-2-yl}vinyl]-1H-indazol-6-yl}thio)benzamide] the IC50 (KDR (VEGFR2)) was ≤ 1 nM, the IC50 (FLT1 (VEGFR1)) was 1 to 10 nM and the IC50 (FLT4 (VEGFR3)) was 1 to 10 nM. For the same compound, the IC50 (EGFR) was > 60000 nM.

`CN(C)CCOc1ccc(/C=C/c2n[nH]c3cc(Sc4ccccc4C(=O)NC4CC4)ccc23)nc1` [Compound I-51, N-cyclopropyl-2-({3-[(E)-2-{5-[2-(dimethylamino)ethoxy]pyridin-2-yl}vinyl]-1H-indazol-6-yl}thio)benzamide] was tested, and the fraction unbound at 2 h, 2 μM (melanin) was 0.01 to 0.05.

With `O=C(NC1CC1)c1ccccc1Sc1ccc2c(/C=C/c3ccc(OCCN4CCCCC4)cn3)n[nH]c2c1` [Compound I-53, N-cyclopropyl-2-({3-[(E)-2-{5-[2-(piperidin-1-yl)ethoxy]pyridin-2-yl}vinyl]-1H-indazol-6-yl}thio)benzamide] the fraction unbound at 2 h, 2 μM (melanin) was > 0.05.

`O=C(NC1CC1)c1cccc(F)c1Sc1ccc2c(/C=C/c3cnn(CCCN4CCCC4)c3)n[nH]c2c1` [Compound I-44, N-cyclopropyl-3-fluoro-2-({3-[(E)-2-{1-[3-(pyrrolidin-1-yl)propyl]-1H-pyrazol-4-yl}vinyl]-1H-indazol-6-yl}thio)benzamide] gave a fraction unbound at 2 h, 2 μM (melanin) of 0.01 to 0.05.

For `CNC(=O)c1ccccc1Sc1ccc2c(/C=C/c3ccc(OCC4CCNC4)cn3)n[nH]c2c1` (centres unmarked) [Compound I-7], the IC50 (FLT1 (VEGFR1)) was ≤ 1 nM and the fraction unbound at 2 h, 2 μM (melanin) was > 0.05.

For `CNC(=O)c1ccccc1Sc1ccc2c(/C=C/c3ccc(OC[C@H]4CCN(C)C4)cn3)n[nH]c2c1` [Compound I-37, N-methyl-2-({3-[(E)-2-(5-{[(3S)-1-methylpyrrolidin-3-yl]methoxy}pyridin-2-yl)vinyl]-1H-indazol-6-yl}thio)benzamide], the IC50 (KDR (VEGFR2)) was ≤ 1 nM, the IC50 (FLT1 (VEGFR1)) was ≤ 1 nM and the fraction unbound at 2 h, 2 μM (melanin) was 0.01 to 0.05.

With `CCN(CC)Cc1ccc(/C=C/c2n[nH]c3cc(Sc4ccccc4C(=O)NCC(F)F)ccc23)nc1` [Compound I-99, 2-({3-[(E)-2-{5-[(diethylamino)methyl]pyridin-2-yl}vinyl]-1H-indazol-6-yl}thio)-N-(2,2-difluoroethyl)benzamide] the IC50 (KDR (VEGFR2)) was 1 to 10 nM, the fraction unbound at 2 h, 2 μM (melanin) was > 0.05 and the IC50 (EGFR) was 6000 to 60000 nM.

Work on `CCN(CC)Cc1ccc(/C=C/c2n[nH]c3cc(Sc4c(F)cccc4C(=O)NC)ccc23)nc1` [Compound I-91, 2-({3-[(E)-2-{5-[(diethylamino)methyl]pyridin-2-yl}vinyl]-1H-indazol-6-yl}thio)-3-fluoro-N-methylbenzamide] yielded an IC50 (KDR (VEGFR2)) of 1 to 10 nM, a fraction unbound at 2 h, 2 μM (melanin) of 0.01 to 0.05 and an IC50 (EGFR) of 6000 to 60000 nM.

For `CNC(=O)c1ccccc1Sc1ccc2c(C#Cc3cccc(OCCN4CCCC4)n3)n[nH]c2c1` [Compound I-24, N-methyl-2-{[3-(2-{6-[2-(pyrrolidin-1-yl)ethoxy]pyridin-2-yl}ethynyl)-1H-indazol-6-yl]thio}benzamide], the IC50 (KDR (VEGFR2)) was 10 to 100 nM, the IC50 (FLT1 (VEGFR1)) was 10 to 100 nM and the IC50 (FLT4 (VEGFR3)) was 10 to 100 nM. It also gave an IC50 (EGFR) of 6000 to 60000 nM.

For `CNC(=O)c1ccccc1Sc1ccc2c(/C=C/c3ccc(OCC4CCCN4C)cn3)n[nH]c2c1` (centres unmarked) [Compound I-2, N-methyl-2-({3-[(E)-2-{5-[(1-methylpyrrolidin-2-yl)methoxy]pyridin-2-yl}vinyl]-1H-indazol-6-yl}thio)benzamide], the IC50 (KDR (VEGFR2)) was ≤ 1 nM, the IC50 (FLT1 (VEGFR1)) was ≤ 1 nM and the fraction unbound at 2 h, 2 μM (melanin) was 0.01 to 0.05.

`CCN(C)CCOc1ccc(/C=C/c2n[nH]c3cc(Sc4ccccc4C(=O)NC4CC4)ccc23)nc1` [Compound I-52, N-cyclopropyl-2-({3-[(E)-2-{5-[2-(diethylamino)ethoxy]pyridin-2-yl}vinyl]-1H-indazol-6-yl}thio)benzoyl] was tested, and the fraction unbound at 2 h, 2 μM (melanin) was > 0.05.

`CNC(=O)c1cccc(F)c1Sc1ccc2c(/C=C/c3cnn(CCCN4CCCC4)c3)n[nH]c2c1` [Compound I-76, 3-fluoro-N-methyl-2-({3-[(E)-2-{1-[3-(pyrrolidin-1-yl)propyl]-1H-pyrazol-4-yl}vinyl]-1H-indazol-6-yl}thio)benzamide] was tested, and the IC50 (KDR (VEGFR2)) was 1 to 10 nM, the fraction unbound at 2 h, 2 μM (melanin) was > 0.05 and the IC50 (EGFR) was 600 to 6000 nM.

For `O=C(NC1CC1)c1ccccc1Nc1ccc2c(/C=C/c3ccc(CN4CCCC4)cn3)n[nH]c2c1` [Compound I-82, N-cyclopropyl-2-({3-[(E)-2-{5-[(pyrrolidin-1-yl)methyl]pyridin-2-yl}vinyl]-1H-indazol-6-yl}amino)benzamide], the IC50 (KDR (VEGFR2)) was ≤ 1 nM, the fraction unbound at 2 h, 2 μM (melanin) was 0.01 to 0.05 and the IC50 (EGFR) was 6000 to 60000 nM.

`CNC(=O)c1ccccc1Sc1ccc2c(/C=C/c3ccc(O)cn3)n[nH]c2c1` [Compound I-10, 2-({3-[(E)-2-(5-hydroxypyridin-2-yl)vinyl]-1H-indazol-6-yl}thio)-N-methylbenzamide] was tested, and the IC50 (KDR (VEGFR2)) was 1 to 10 nM, the IC50 (FLT1 (VEGFR1)) was 1 to 10 nM and the IC50 (FLT4 (VEGFR3)) was ≤ 1 nM. The IC50 (EGFR) was 6000 to 60000 nM.

Compound `CCNC(=O)c1ccccc1Sc1ccc2c(/C=C/c3ccc(CN4CCCC4)cn3)n[nH]c2c1` [Compound I-73, N-ethyl-2-({3-[(E)-2-{5-[(pyrrolidin-1-yl)methyl]pyridin-2-yl}vinyl]-1H-indazol-6-yl}thio)benzamide] has an IC50 (KDR (VEGFR2)) of 1 to 10 nM, a fraction unbound at 2 h, 2 μM (melanin) of 0.01 to 0.05 and an IC50 (EGFR) of 6000 to 60000 nM.

In the case of `O=C(NC1CC1)c1ccc(F)cc1Sc1ccc2c(/C=C/c3ccc(CN4CCCC4)cn3)n[nH]c2c1` [Compound I-79, N-cyclopropyl-4-fluoro-2-({3-[(E)-2-{5-[(pyrrolidin-1-yl)methyl]pyridin-2-yl}vinyl]-1H-indazol-6-yl}thio)benzamide], the IC50 (KDR (VEGFR2)) is reported as ≤ 1 nM, the fraction unbound at 2 h, 2 μM (melanin) is reported as > 0.05 and the IC50 (EGFR) is reported as 6000 to 60000 nM.

For `O=C(NC1CC1)c1ccccc1Sc1ccc2c(/C=C/c3cccc(CCCN4CCCC4)n3)n[nH]c2c1` [Compound I-121, N-cyclopropyl-2-({3-[(E)-2-{6-[3-(pyrrolidin-1-yl)propyl]pyridin-2-yl}vinyl]-1H-indazol-6-yl}thio)benzamide], the IC50 (KDR (VEGFR2)) was ≤ 1 nM, the IC50 (FLT1 (VEGFR1)) was 1 to 10 nM and the IC50 (FLT4 (VEGFR3)) was ≤ 1 nM. The IC50 (EGFR) was 6000 to 60000 nM.

`CNC(=O)c1ccc(F)cc1Sc1ccc2c(/C=C/c3ccc(CN4CCCC4)cn3)n[nH]c2c1` [Compound I-94, 4-fluoro-N-methyl-2-({3-[(E)-2-{5-[(pyrrolidin-1-yl)methyl]pyridin-2-yl}vinyl]-1H-indazol-6-yl}thio)benzamide] showed an IC50 (KDR (VEGFR2)) of 1 to 10 nM, a fraction unbound at 2 h, 2 μM (melanin) of 0.01 to 0.05 and an IC50 (EGFR) of 6000 to 60000 nM.

In the case of `O=C(NC1CC1)c1cc(F)ccc1Sc1ccc2c(/C=C/c3cc(CCCN4CCCC4)ccn3)n[nH]c2c1` [Compound I-119, N-cyclopropyl-5-fluoro-2-({3-[(E)-2-{4-[3-(pyrrolidin-1-yl)propyl]pyridin-2-yl}vinyl]-1H-indazol-6-yl}thio)benzamide], the IC50 (KDR (VEGFR2)) is reported as ≤ 1 nM, the IC50 (FLT1 (VEGFR1)) is reported as 1 to 10 nM and the IC50 (FLT4 (VEGFR3)) is reported as 10 to 100 nM. For the same compound, the IC50 (EGFR) was > 60000 nM.

In the case of `CCN(CC)Cc1ccc(/C=C/c2n[nH]c3cc(Sc4ccccc4C(=O)NCCF)ccc23)nc1` [Compound I-98, 2-({3-[(E)-2-{5-(diethylamino)methyl]pyridin-2-ylvinyl]-1H-indazol-6-yl}thio)-N-(2-fluoroethyl)benzamide], the IC50 (KDR (VEGFR2)) is reported as 1 to 10 nM, the fraction unbound at 2 h, 2 μM (melanin) is reported as > 0.05 and the IC50 (EGFR) is reported as 6000 to 60000 nM.
